Data: BindingDB's records for doi:10.1021/jm00004a013 (Solvay Pharma, 1995)

Biological target: Polyunsaturated fatty acid 5-lipoxygenase (Cavia porcellus)
Test: Inhibitory activity against partially-purified Guinea pig PMN 5-lipoxygenase

Cc1ccnc(N2CCN(CCc3c(C)n4c5c(cc(O)cc35)CCC4)CC2)c1 [2-Methyl-1-{2-[4-(4-methyl-pyridin-2-yl)-piperazin-1-yl]-ethyl}-5,6-dihydro-4H-pyrrolo[3,2,1-ij]quinolin-8-ol]
IC50: 2.8 µM
